The structures appear in SMILES notation.

A word on the viability: it is a read-out of living cells in per cent, often relative to untreated cells.

The nature of the series: in vitro. As to conditions: human, hek293t cells.
For `COc1ccc(C=C(C#N)C(=O)Nc2c(C)cccc2C)cc1OC` [8-A17, 2-cyano-3-(3,4-dimethoxyphenyl)-N-(2,6-dimethylphenyl)prop-2-enamide], the viability at 48 h, 25 µM was determined as 82.9%. As for `COc1cc(C=C(C#N)C(=O)Nc2c(C)cc(C)cc2C)cc(OC)c1` [8-A18, 2-cyano-3-(3,5-dimethoxyphenyl)-N-(2,4,6-trimethylphenyl)prop-2-enamide], the viability at 48 h, 25 µM amounted to 26.3%. Next, `COc1cccc(NC(=O)C(C#N)=Cc2ccc([N+](=O)[O-])o2)c1` [8-A19, 2-cyano-N-(3-methoxyphenyl)-3-(5-nitrofuran-2-yl)prop-2-enamide]: 72.4%.

For `CCc1ccc(NC(=O)C(C#N)=Cc2cccn2C)cc1` [8-A20, 2-cyano-N-(4-ethylphenyl)-3-(1-methyl-1H-pyrrol-2-yl)prop-2-enamide], the viability at 48 h, 25 µM stood at 58.7%. For `COc1cc(Cl)c(C)cc1NC(=O)C(C#N)=CC=Cc1ccccc1` [8-A21, N-(4-chloro-2-methoxy-5-methylphenyl)-2-cyano-5-phenylpenta-2,4-dienamide] the value was 82%; for `CC(C)NC(=O)C(C#N)=Cc1cccc(O)c1` [8-A22, 2-cyano-3-(3-hydroxyphenyl)-N-(propan-2-yl)prop-2-enamide], 67.3%; for `N#CC(=Cc1ccc2c(c1)OCCO2)C(=O)Nc1nccs1` [8-B03, 2-cyano-3-(2,3-dihydro-1,4-benzodioxin-6-yl)-N-(1,3-thiazol-2-yl)prop-2-enamide], 115%. For `COCC(C)n1c(C)cc(C=C(C#N)C(=O)NS(C)(=O)=O)c1C` (centres unmarked) [8-B04, 2-cyano-N-methanesulfonyl-3-[1-(1-methoxypropan-2-yl)-2,5-dimethyl-1H-pyrrol-3-yl]prop-2-enamide], the viability at 48 h, 25 µM was 94.8%. As for `N#CC(=Cc1ccc(O)c(O)c1)C(=O)Nc1ccccc1F` [8-B05, 2-cyano-3-(3,4-dihydroxyphenyl)-N-(2-fluorophenyl)prop-2-enamide], the viability at 48 h, 25 µM came out at 92.9%.

For `N#CC(=Cc1cccc(F)c1F)C(=O)NCc1ccccc1` [8-B06, N-benzyl-2-cyano-3-(2,3-difluorophenyl)prop-2-enamide], the viability at 48 h, 25 µM was 27.1%.

Consider `N#CC(=Cc1ccc(Cl)c(Cl)c1)C(=O)NCc1ccccc1` [8-B07, N-benzyl-2-cyano-3-(3,4-dichlorophenyl)prop-2-enamide], for which the viability at 48 h, 25 µM came out at 105%. `N#CC(=Cc1ccc([N+](=O)[O-])c(Cl)c1)C(=O)NC1CCCCC1` [8-B08, 3-(3-chloro-4-nitrophenyl)-2-cyano-N-cyclohexylprop-2-enamide]: the viability at 48 h, 25 µM was 0.92%. As to `CCOc1ccccc1C=C(C#N)C(=O)Nc1ccc(Cl)cc1` [8-B09, N-(4-chlorophenyl)-2-cyano-3-(2-ethoxyphenyl)prop-2-enamide], the viability at 48 h, 25 µM is 82.9%.

For the compound `Cc1cc(=O)[nH]c(-c2cccc(NC(=O)C(C#N)=Cc3ccco3)c2)n1` [8-B10, 2-cyano-3-(furan-2-yl)-N-[3-(4-methyl-6-oxo-1,6-dihydropyrimidin-2-yl)phenyl]prop-2-enamide], the viability at 48 h, 25 µM amounted to 57.8%. For `N#CC(=Cc1ccccc1Cl)C(=O)Nc1ccc(Cl)cc1` [8-B11, 3-(2-chlorophenyl)-N-(4-chlorophenyl)-2-cyanoprop-2-enamide] the value was 113%; for `Cc1ccccc1N1C(=O)CSC1=C(C#N)C(=O)N1CCCCC1` [8-B12, 2-[3-(2-methylphenyl)-4-oxo-1,3-thiazolidin-2-ylidene]-3-oxo-3-(piperidin-1-yl)propanenitrile], 113%. Regarding `Cc1ccsc1C=C(C#N)C(=O)N1CCN(c2ccccc2)CC1` [8-B13, 3-(3-methylthiophen-2-yl)-2-(4-phenylpiperazine-1-carbonyl)prop-2-enenitrile], the viability at 48 h, 25 µM amounted to 92.4%. Next, `N#CC(=Cc1c(Cl)cccc1Cl)C(=O)NCCc1ccccc1` [8-B14, 2-cyano-3-(2,6-dichlorophenyl)-N-(2-phenylethyl)prop-2-enamide]: 2%; `COc1ccccc1NC(=O)C(C#N)=Cc1ccc(C)s1` [8-B15, 2-cyano-N-(2-methoxyphenyl)-3-(5-methylthiophen-2-yl)prop-2-enamide]: 103%; `N#CC(=Cc1ccc(O)cc1)C(=O)NCc1ccc(Cl)cc1` [8-B16, N-[(4-chlorophenyl)methyl]-2-cyano-3-(4-hydroxyphenyl)prop-2-enamide]: 102%.

For `Cc1cc(C)c(NC(=O)C(C#N)=Cc2cccnc2)c(C)c1` [8-B17, 2-cyano-3-(pyridin-3-yl)-N-(2,4,6-trimethylphenyl)prop-2-enamide], the viability at 48 h, 25 µM was 122%.

Turning to `Cc1c(C=C(C#N)C(=O)Nc2nccs2)cc(C#N)n1C` [8-B18, 2-cyano-3-(5-cyano-1,2-dimethyl-1H-pyrrol-3-yl)-N-(1,3-thiazol-2-yl)prop-2-enamide], the viability at 48 h, 25 µM worked out at 94.1%. Next, `N#CC(=Cc1ccncc1)C(=O)Nc1cccc(Cl)c1` [8-B19, N-(3-chlorophenyl)-2-cyano-3-(pyridin-4-yl)prop-2-enamide]: 85.5%. Next, `N#CC(=Cc1ccco1)C(=O)Nc1cccc2ncccc12` [8-B20, 2-cyano-3-(furan-2-yl)-N-(quinolin-5-yl)prop-2-enamide]: 85.9%; `N#CC(=Cc1cccnc1)C(=O)Nc1ccc(F)cc1` [8-B21, 2-cyano-N-(4-fluorophenyl)-3-(pyridin-3-yl)prop-2-enamide]: 125%. In the case of `N#CC(=Cc1cccc([N+](=O)[O-])c1)C(=O)NCc1ccccc1` [8-B22, N-benzyl-2-cyano-3-(3-nitrophenyl)prop-2-enamide], the viability at 48 h, 25 µM came out at 32%. Next, `COc1ccc(C=C(C#N)C(=O)Nc2ccc(Cl)c(Cl)c2)cc1` [8-C03, 2-cyano-N-(3,4-dichlorophenyl)-3-(4-methoxyphenyl)prop-2-enamide]: 99.6%; `N#CC(=Cc1ccc(N2CCCCC2)cc1)C(=O)Nc1nccs1` [8-C04, 2-cyano-3-[4-(piperidin-1-yl)phenyl]-N-(1,3-thiazol-2-yl)prop-2-enamide]: 97.1%. For `COc1ccc(C=C(C#N)C(=O)Nc2ccc([N+](=O)[O-])cc2)cc1` [8-C05, 2-cyano-3-(4-methoxyphenyl)-N-(4-nitrophenyl)prop-2-enamide] the value was 81.5%.

As for `N#CC(=Cc1ccc(-c2ccccc2)cc1)C(=O)NCc1ccccc1` [8-C06, N-benzyl-3-{[1,1'-biphenyl]-4-yl}-2-cyanoprop-2-enamide], the viability at 48 h, 25 µM amounted to 81.4%. For `N#CC(=Cc1ccc(-c2cccc([N+](=O)[O-])c2)o1)C(=O)N1CCOCC1` [8-C07, 2-(morpholine-4-carbonyl)-3-[5-(3-nitrophenyl)furan-2-yl]prop-2-enenitrile] the value was 79.1%; for `CC(C)NC(=O)C(C#N)=Cc1cc(F)ccc1F` [8-C08, 2-cyano-3-(2,5-difluorophenyl)-N-(propan-2-yl)prop-2-enamide], 138%.

Regarding `COc1ccc(C=C(C#N)C(=O)NCc2ccccc2)cc1O` [8-C09, N-benzyl-2-cyano-3-(3-hydroxy-4-methoxyphenyl)prop-2-enamide], the viability at 48 h, 25 µM was 66.6%.

With `N#CC(=Cc1cc(F)ccc1F)C(=O)Nc1ccc(F)cc1F` [8-C10, 2-cyano-N-(2,4-difluorophenyl)-3-(2,5-difluorophenyl)prop-2-enamide], the viability at 48 h, 25 µM was determined as 91.2%. Next, `N#CC(=Cc1ccc(Cl)cc1)C(=O)Nc1nccs1` [8-C11, 3-(4-chlorophenyl)-2-cyano-N-(1,3-thiazol-2-yl)prop-2-enamide]: 79%. For `CC(=O)Nc1ccc(NC(=O)C(C#N)=Cc2cc(F)ccc2F)cc1` [8-C12, 2-cyano-3-(2,5-difluorophenyl)-N-(4-acetamidophenyl)prop-2-enamide], the viability at 48 h, 25 µM is 57.6%.

Take `N#CC(=Cc1ccccc1)C(=O)Nc1ccccc1F` [8-C13, 2-cyano-N-(2-fluorophenyl)-3-phenylprop-2-enamide]: the viability at 48 h, 25 µM is 69.6%. As to `Cc1ccc(C=C(C#N)C(=O)Nc2ccc(C(=O)O)cc2)o1` [8-C14, 4-[2-cyano-3-(5-methylfuran-2-yl)prop-2-enamido]benzoic acid], the viability at 48 h, 25 µM was 109%. For `N#CC(=Cc1ccccc1Cl)C(=O)Nc1cccc2ncccc12` [8-C15, 3-(2-chlorophenyl)-2-cyano-N-(quinolin-5-yl)prop-2-enamide] the value was 51%; for `COc1cccc(NC(=O)C(C#N)=Cc2ccc(C)cc2C)c1` [8-C16, 2-cyano-3-(2,4-dimethylphenyl)-N-(3-methoxyphenyl)prop-2-enamide], 91.5%. For `C=CCNC(=O)C(C#N)=Cc1cc(C)n(-c2ccc(C)cc2)c1C` [8-C17, 2-cyano-3-[2,5-dimethyl-1-(4-methylphenyl)-1H-pyrrol-3-yl]-N-(prop-2-en-1-yl)prop-2-enamide] the value was 60.7%; for `Cc1cccc(NC(=O)C(C#N)=Cc2cc(C)c(C)cc2C)c1` [8-C18, 2-cyano-N-(3-methylphenyl)-3-(2,4,5-trimethylphenyl)prop-2-enamide], 92.9%; for `CC1CCCC(NC(=O)C(C#N)=Cc2ccccc2)C1C` (centres unmarked) [8-C19, 2-cyano-N-(2,3-dimethylcyclohexyl)-3-phenylprop-2-enamide], 27.3%. On to `N#CC(=CN1CCN(c2ccccc2)CC1)C(=O)Nc1ccc(F)cc1` [8-C20, 2-cyano-N-(4-fluorophenyl)-3-(4-phenylpiperazin-1-yl)prop-2-enamide], for which the viability at 48 h, 25 µM was 72.5%. Next, `COc1ccc(C=C(C#N)C(=O)Nc2ccccc2Cl)cc1O` [8-C21, N-(2-chlorophenyl)-2-cyano-3-(3-hydroxy-4-methoxyphenyl)prop-2-enamide]: 82.8%; `N#CC(=Cc1cc2cc(F)ccc2o1)C(=O)NC(N)=O` [8-C22, {2-cyano-2-[(5-fluoro-1-benzofuran-2-yl)methylidene]acetyl}urea]: 79.1%; `Cn1ccnc1Sc1ccc(C=C(C#N)C(N)=O)cc1[N+](=O)[O-]` [8-D03, 2-cyano-3-{4-[(1-methyl-1H-imidazol-2-yl)sulfanyl]-3-nitrophenyl}prop-2-enamide]: 135%.
